# Reference: patent US12383624B2, “Cargo delivery system and composition comprising the same” (SEOUL NATIONAL UNIVERSITY R&DB FOUNDATION, priority 2018, dated 2025)
# System: Bcl-2
# Test: target protein degradation by immunoblotting (Experimental Example 6)
# Format: cell-based, human
# Settings: HEK293T cell line, 24 hours
# Protocol: In order to evaluate the target proteion degradation efficacy by Examples 14 to 33 according the disclosure, the following experiment was conducted.
# First, as cell lines primarily expressing the target protein, Human kidney-derived cancer cells, HEK293T (ATCC, CRL-3216), human prostate-derived cancer cells, LNcap (Korean Cell Line Bank, Korean Cell Line Research Foundation, KCLB No. 80018), mouse embryonic fibroblast, MEF (ATCC, SCRC-1008), human cervical cancer cells, HeLa (Korean Cell Line Bank, Korean Cell Line Research Foundation, KCLB No. 10002), human blood-derived cells, K562 (Korean Cell Line Bank, Korean Cell Line Research Foundation, KCLB No. 10243), human blood-derived cells, THP-1 (Korean Cell Line Bank, Korean Cell Line Research Foundation, KCLB No. 40202), human lung-derived cancer cells, A549 (Korean Cell Line Bank, Korean Cell Line Research Foundation, KCLB No. 10185), human breast-derived cancer cells, MCF7 (Korean Cell Line Bank, Korean Cell Line Research Foundation, KCLB No. 30022), human neuroblastoma, SH-SY5Y cell lines (Korean Cell Line Bank, Korean Cell Line Research Foundation, KCLB No. 22266), human pancreatic cancer cells, PANC-1 (Korean Cell Line Bank, Korean Cell Line Research Foundation, KCLB No. 21469) were cultured, respectively, in an incubator maintained at 5% carbon dioxide, using DMEM containing 10% FBS and 1% streptomycin/penicillin, RPMI1640, or MEM medium, and then the respective cells were dispensed in 12-well plate. Additional incubation was performed for 24 hours to ensure that each cell completely fixed to the surface of the plate.
# In order to confirm whether Compounds A to W of Examples 14 to 33 degrade the target protein respectively, the cultured cells were treated with the compound of each example for 24 hours and then collected.
# In this case, HEK293T, which is human kidney-derived cancer cells, LNcap, which is human prostate-derived cancer cells, and MEF cell line, which is mouse embryonic fibroblasts, were treated with Example 14 (Compound A). HEK293T, which is human kidney-derived cancer cells, was treated with Example 15 (Compound B). HEK293T cell line, which is human kidney-derived cancer cells, and HeLa cell line, which is cervical-derived cancer cells, were treated with Example 16 (Compound C). HEK293T cell line, which is human kidney-derived cancer cells, was treated with Example 17 (Compound D). K562 cell line, which is human blood-derived cells, was treated with Example 18 (Compound E). HEK293T cell line, which is human kidney-derived cancer cells, was treated with Example 19 (Compound F). THP-1 cell line, which is human blood-derived cells, was treated with Example 20 (Compound G). A549 cell line, which is human lung-derived cancer cells, was treated with Example 21 (Compound H). A549 cell line, which is human lung-derived cancer cells, was treated with Example 22 (Compound I). MCF7 cell line, which is human breast-derived cancer cells, was treated with Example 23 (Compound J). HEK293T cell line, which is […], was treated with Example 24 (Compound L). SH-SY5Y, which is human neuroblastoma, and HeLa cell line, which is cervical-derived cancer cells, were treated with Example 25 (Compound M). THP-1 cell line, which is human blood-derived cells, was treated with Example 26 (Compound P). SH-SY5Y, which is human neuroblastoma, and HeLa cell line, which is cervical-derived cancer cells, were treated with Example 27 (Compound Q). SH-SY5Y, which is human neuroblastoma, and HeLa cell line, which is cervical-derived cancer cells, were treated with Example 28 (Compound R). HeLa cell line, a human cervical-derived cancer cell, was treated with Example 29 (Compound S). SH-SY5Y cell line, which is human neuroblastoma, was treated with Example 30 (Compound T). SH-SY5Y cell line, which is human neuroblastoma, was treated with Example 31 (Compound U). PANC-1 cell line, which is human pancreatic-derived cancer cells, was treated with Example 32 (Compound V). […]
smiles,measurement,value
"O=C(O)c1ccc2c(c1)nc(Nc1cc(Cl)cc(NCCOCCOCCOCCOCCOCCNC[C@@H](O)COc3ccc(OCc4ccc(F)cc4)c(OCc4ccc(F)cc4)c3)c1)c1ccncc12 [Example 24, (R)-5-((3-((21-(3,4-bis((4-fluorobenzyl)oxy)phenoxy)-20-hydroxy-3,6,9,12,15-pentaoxa-18-azahenicosyl)amino)-5-chlorophenyl)amino)benzo[c][2,6]naphthyridine-8-carboxylic acid]",degradation of target protein Bcl-2 (decrease in level vs Control),can be degraded
